Results taken from US12102667B2, “Polypeptides and antibiotics against gram-negative bacterium comprising the same” (priority 2021, dated 2024).
Entries after “also recorded” stand apart in the source; their conditions may differ. Read-outs that look alike come from different tables or passages of the source.

Columns and labels:
[1] = test system: E. coli; test: Checkerboard assay (MIC in combination, FIC index); format: cell-based, Escherichia coli; parameters: MIC of colistin: unit not given here; settings: for MIC of colistin: colistin-resistant E. coli FORC81
Protocol: LNT113 was vertically diluted 2-fold and the antibiotic was serially diluted horizontally in a 96-well plate. Bacterium at a concentration of 10^6 CFU/ml were added to each well in a CAA medium. […] The fractional inhibitory concentration (FIC) for the LNT113 or antibiotic was calculated by dividing the MIC of two drugs by combining it with the MIC of each drug alone. […] The FICI was considered as a synergistic effect ≤0.5, an additive >0.5 ˜≤1, an independent effect (indifference)>1.0 ˜≤2, and an antagonistic effect (antagonism) >2.

[2] = test system: E. coli; settings: cited from earlier work
[3] = test system: K. pneumoniae; settings: K. pneumoniae CCARM 10143; cited from earlier work
[4] = test system: E. coli; test: Antibacterial activity analysis (colony count after 2 hours in buffer); format: cell-based, Escherichia coli; settings: 2 μM
Protocol: (§1) The antibacterial activity of the purified protein was tested for E. coli and various K. pneumoniae strains. The bacterium were grown to an exponential phase (OD600=0.5) and harvested by centrifugation at 12,000×g for 3 minutes. Then, the pellets were washed with reaction buffer solution (20 mM Tris-HCl, pH 7.5) and diluted to about 10^6 cells/ml in the buffer solution. Then, 100 μl bacterial suspension was mixed with the purified endolysin of 100 μl in the reaction buffer solution and incubated at 37° C. for 2 hours. Finally, the mixture was diluted with PBS and loaded on an LB plate. After culturing at 37° C. overnight, the bacterial colonies were counted. All the analysis was performed in triplicate.
(§2) The same reaction was performed for the selected subject bacterium in 20 mM HEPES-NaOH, 150 mM NaCl [pH 7.4], and the unique antibacterial activity of Tris and dependence of endolysin for turgor pressure were excluded (FIG. 10a and FIG. 10b). […] The bacterial cells grown geometrically were cultured with 2 μM endolysin in low tonicity buffers (20 mM Tris-HCl, pH 7.5 or 20 mM HEPES, pH 7.5) or high tonicity buffers (buffer solution comprising 150 mM NaCl) at 37° C. for 2 hours. The cells treated with storage buffer solution (20 mM Tris-HCl, pH 7.5, 150 mM NaCl buffer solution (pH 7.5)) were used as a negative control group. The dotted line represents the detection limit (1 Log CFU/ml).
For this, endolysin EC340 at a concentration of 2 μM and each test bacterium were added to reaction buffer (20 mM Tris-Cl, pH 7.5) so that the final concentration was to be 200 μl, and were left at 37° C. for 2 hours. After 2 hours, the number of colonies of Acinetobacter baumannii, Pseudomonas aeruginosa and Escherichia coli was confirmed, and the result was shown in FIG. 3.

[5] = test system: K. pneumoniae; test: as above; format: cell-based, Klebsiella pneumoniae; settings: 2 μM
Protocol: as §1, §2

[6] = antibiotic combined with LNT113, E. coli ATCC 8739
[7] = antibiotic combined with LNT113, E. coli ATCC 51739
[8] = antibiotic combined with LNT113, E. coli CCARM 1A746
[9] = antibiotic combined with LNT113, E. coli FORC81
[10] = antibiotic combined with LNT113, E. coli UPEC 3150
[11] = antibiotic combined with LNT113, E. coli strains overall

CN(C)c1cc(NC(=O)CNC(C)(C)C)c(O)c2c1C[C@H]1C[C@H]3[C@H](N(C)C)C(O)=C(C(N)=O)C(=O)[C@@]3(O)C(O)=C1C2=O [Tigecycline]
Fractional inhibitory concentration index (FICI) of LNT113 using various antibiotics [1, 6]: 2 | Fractional inhibitory concentration index (FICI) of LNT113 using various antibiotics [1, 7]: 0.63 | Fractional inhibitory concentration index (FICI) of LNT113 using various antibiotics [1, 8]: 2 | Fractional inhibitory concentration index (FICI) of LNT113 using various antibiotics [1, 9]: 2 | Fractional inhibitory concentration index (FICI) of LNT113 using various antibiotics [1, 10]: 0.63

CC1(C)S[C@@H]2[C@H](NC(=O)[C@H](N)c3ccccc3)C(=O)N2[C@H]1C(=O)O [Ampicillin]
MIC of antibiotics ([2]; E. coli CCARM 1A746): ≥128 µg/mL | MIC of antibiotics ([2]; E. coli CCARM 1B684): ≥128 µg/mL | MIC of antibiotics [3]: ≥128 µg/mL

CCn1cc(C(=O)O)c(=O)c2cc(F)c(N3CCNCC3)cc21 [Norfloxacin]
MIC of antibiotics ([2]; E. coli CCARM 1A746): ≥128 µg/mL | MIC of antibiotics ([2]; E. coli CCARM 1B684): 32 µg/mL

NC[C@H]1O[C@H](O[C@H]2[C@H](O)[C@@H](O[C@H]3O[C@H](CO)[C@@H](O)[C@H](N)[C@H]3O)[C@H](N)C[C@@H]2N)[C@H](O)[C@@H](O)[C@@H]1O [Kanamycin]
Fractional inhibitory concentration index (FICI) of LNT113 using various antibiotics [1, 6]: 2 | Fractional inhibitory concentration index (FICI) of LNT113 using various antibiotics [1, 7]: 1 | Fractional inhibitory concentration index (FICI) of LNT113 using various antibiotics [1, 9]: 1 | Fractional inhibitory concentration index (FICI) of LNT113 using various antibiotics [1, 10]: 1

[H]/N=C(/N)N[C@H]1[C@H](O)[C@@H](O)[C@H](O[C@@H]2O[C@@H](C)[C@](O)(C=O)[C@H]2O[C@@H]2O[C@@H](CO)[C@H](O)[C@@H](O)[C@@H]2NC)[C@@H](N/C(N)=N\[H])[C@@H]1O [Streptomycin]
MIC of antibiotics ([2]; E. coli CCARM 1A746): ≥128 µg/mL | MIC of antibiotics ([2]; E. coli CCARM 1B684): ≥128 µg/mL

O=C(N[C@H](CO)[C@H](O)c1ccc([N+](=O)[O-])cc1)C(Cl)Cl [Chloramphenicol]
Fractional inhibitory concentration index (FICI) of LNT113 using various antibiotics [1, 6]: 1 | Fractional inhibitory concentration index (FICI) of LNT113 using various antibiotics [1, 7]: 0.75 | Fractional inhibitory concentration index (FICI) of LNT113 using various antibiotics [1, 9]: 2 | Fractional inhibitory concentration index (FICI) of LNT113 using various antibiotics [1, 10]: 0.75

CC[C@H]1OC(=O)[C@H](C)[C@@H](O[C@H]2C[C@@](C)(OC)[C@@H](O)[C@H](C)O2)[C@H](C)[C@@H](O[C@@H]2O[C@H](C)C[C@H](N(C)C)[C@H]2O)[C@](C)(O)C[C@@H](C)CN(C)[C@H](C)[C@@H](O)[C@]1(C)O [Azithromycin]
Fractional inhibitory concentration index (FICI) of LNT113 using various antibiotics [1, 6]: 1 | Fractional inhibitory concentration index (FICI) of LNT113 using various antibiotics [1, 7]: 0.75 | Fractional inhibitory concentration index (FICI) of LNT113 using various antibiotics [1, 8]: 1 | Fractional inhibitory concentration index (FICI) of LNT113 using various antibiotics [1, 9]: 2 | Fractional inhibitory concentration index (FICI) of LNT113 using various antibiotics [1, 10]: 0.75

C[C@@H](O)[C@H]1C(=O)N2C(C(=O)O)=C(S[C@@H]3CN[C@H](C(=O)N(C)C)C3)[C@H](C)[C@H]12 [Meropenem]
Fractional inhibitory concentration index (FICI) of LNT113 using various antibiotics [1, 6]: 0.63 | Fractional inhibitory concentration index (FICI) of LNT113 using various antibiotics [1, 7]: 0.75 | Fractional inhibitory concentration index (FICI) of LNT113 using various antibiotics [1, 8]: 1 | Fractional inhibitory concentration index (FICI) of LNT113 using various antibiotics [1, 9]: 2 | Fractional inhibitory concentration index (FICI) of LNT113 using various antibiotics [1, 10]: 1 | combination effect with LNT113, in words [1, 11]: slight additive effect

Colistin
strains in which the synergistic effect with LNT113 was observed ([1]; 5 different E. coli strains): 4 strains among 5 strains | MIC of endolysin combined with colistin: Colistin ([1]; E. coli ATCC8738, EC340 0): 2 µg/mL | MIC of endolysin combined with colistin: Colistin ([1]; E. coli ATCC8738, EC340 16): 0.125 µg/mL | MIC of endolysin combined with colistin: Colistin ([1]; E. coli ATCC8738, EC340 32): 0.0625 µg/mL | MIC of endolysin combined with colistin: Colistin ([1]; E. coli ATCC8738, EC340 <2): 0.25 µg/mL | MIC of endolysin combined with colistin: Colistin ([1]; E. coli ATCC8738, mtEC340 0): 2 µg/mL | MIC of endolysin combined with colistin: Colistin ([1]; E. coli ATCC8738, mtEC340 16): 0.125 µg/mL | MIC of endolysin combined with colistin: Colistin ([1]; E. coli ATCC8738, mtEC340 32): 0.125 µg/mL | MIC of endolysin combined with colistin: Colistin ([1]; E. coli ATCC8738, mtEC340 <2): 0.25 µg/mL | combination effect with LNT113 (FICI class) ([1]; E. coli ATCC 8739): synergistic effect (a synergistic effect ≤0.5) | MIC of endolysin combined with colistin: Colistin ([1]; E. coli ATOCB739, LNT113 0): 2 µg/mL | MIC of endolysin combined with colistin: Colistin ([1]; E. coli ATOCB739, LNT113 1): 1 µg/mL | MIC of endolysin combined with colistin: Colistin ([1]; E. coli ATOCB739, LNT113 2): 0.5 µg/mL | MIC of endolysin combined with colistin: Colistin ([1]; E. coli ATOCB739, LNT113 4): 0.0625 µg/mL | combination effect with LNT113 (FICI class) ([1]; E. coli FORC81): synergistic effect (a synergistic effect ≤0.5) | MIC of endolysin combined with colistin: Colistin ([1]; E. coli FORC81, LNT113 0): 16 µg/mL | MIC of endolysin combined with colistin: Colistin ([1]; E. coli FORC81, LNT113 2): 4 µg/mL | MIC of endolysin combined with colistin: Colistin ([1]; E. coli FORC81, LNT113 4): 1 µg/mL | MIC of endolysin combined with colistin: Colistin ([1]; E. coli FORC81, LNT113 <0.25): 8 µg/mL | combination effect with LNT113 (FICI class) ([1]; E. coli UPEC 3150): synergistic effect (a synergistic effect ≤0.5) | MIC of endolysin combined with colistin: Colistin ([1]; E. coli UPEC3150, LNT113 0): 4 µg/mL | MIC of endolysin combined with colistin: Colistin ([1]; E. coli UPEC3150, LNT113 1): 2 µg/mL | MIC of endolysin combined with colistin: Colistin ([1]; E. coli UPEC3150, LNT113 2): 0.5 µg/mL | MIC of endolysin combined with colistin: Colistin ([1]; E. coli UPEC3150, LNT113 4): 0.0625 µg/mL | MIC of colistin in presence of endolysin EC340 or mtEC340 ([1]; Table 3): significantly reduced | Fractional inhibitory concentration index (FICI) of LNT113 using various antibiotics [1, 6]: 0.25 | Fractional inhibitory concentration index (FICI) of LNT113 using various antibiotics [1, 7]: 0.5 | Fractional inhibitory concentration index (FICI) of LNT113 using various antibiotics [1, 8]: 0.63 | Fractional inhibitory concentration index (FICI) of LNT113 using various antibiotics [1, 9]: 0.5 | Fractional inhibitory concentration index (FICI) of LNT113 using various antibiotics [1, 10]: 0.38 | Fractional inhibitory concentration index (FICI) of LNT113 using various antibiotics ([1]; antibiotic combined with LNT113, E. coli UPEC 3150, listed as colistin): 0.375 | combination effect with LNT113 (FICI class) [1, 11]: synergistic effect (a synergistic effect ≤0.5) | MIC of colistin ([1]; colistin alone): 16 | MIC of colistin ([1]; in combination with LNT113 of 4 mg/ml): 1 | decrease of bacterial cells ([4]; colistin-resistant E. coli FORC81, 2 hours): 1.2 log

CC(C)(O/N=C(\C(=O)N[C@@H]1C(=O)N2C(C(=O)[O-])=C(C[n+]3ccccc3)CS[C@H]12)c1csc(N)n1)C(=O)O [Ceftazidime]
Fractional inhibitory concentration index (FICI) of LNT113 using various antibiotics [1, 6]: 2 | Fractional inhibitory concentration index (FICI) of LNT113 using various antibiotics [1, 7]: 2 | Fractional inhibitory concentration index (FICI) of LNT113 using various antibiotics [1, 8]: 2 | Fractional inhibitory concentration index (FICI) of LNT113 using various antibiotics [1, 9]: 1 | Fractional inhibitory concentration index (FICI) of LNT113 using various antibiotics [1, 10]: 1 | combination effect with LNT113, in words [1, 11]: Neither ceftazidime and kanamycin showed a synergistic or additive effect; also recorded: little additive effect

B1: mtEC340: mutant EC340 with H39S, D43H, T45E, A73V, A81S, T101A and I113V (protein)
chain: VSRNISNNGIKFTAAFEGFRGTAYRATPNEKYLTIGYGSYGPHVEPGKTITPGQGLLLLNRDMAKAVAAVDAVAHHSLTQSQFDAVCDLVYNAGAGVIAAATGTGKALRSGDVATLRAKLALFINQNGKPLLGLRRRTAGRLALFDGKPWQEAEAIGRAVKG
modifications: synthetic_mtEC340
notes: mutant EC340 with H39S, D43H, T45E, A73V, A81S, T101A and I113V
MIC of endolysin combined with colistin: mtEC340 ([1]; E. coli ATCC8738, Colistin 0): >128 µg/mL | MIC of endolysin combined with colistin: mtEC340 ([1]; E. coli ATCC8738, Colistin 0.125 (row with mtEC340 16)): 16 µg/mL | MIC of endolysin combined with colistin: mtEC340 ([1]; E. coli ATCC8738, Colistin 0.125 (row with mtEC340 32)): 32 µg/mL | MIC of endolysin combined with colistin: mtEC340 ([1]; E. coli ATCC8738, Colistin 0.25): <2 µg/mL | antibacterial activity (number of bacterium) ([4]; E. coli ATCC8739, ATCC25922, CCARM1A746, CCARM1B684, 2 hours, Tris-HCl pH 7.5): more excellent antibacterial activity | effect of adding NaCl on antibacterial activity ([4]; E. coli ATCC 8739, Tris or Hepes buffer with 150 mM NaCl): almost inactivated | increase of antibacterial activity versus EC340 ([4]; various E. coli strains, 2 hours): up to 1 log | antibacterial activity (number of bacterium) ([5]; K. pneumoniae ATCC700603, KCTC2208, CCARM10143, F85, 2 hours, Tris-HCl pH 7.5): more excellent antibacterial activity | effect of adding NaCl on antibacterial activity ([5]; K. pneumoniae KCTC 2208, Tris or Hepes buffer with 150 mM NaCl): almost inactivated | increase of antibacterial activity versus EC340 ([5]; various K. pneumoniae strains, 2 hours): up to 1 log
